The values that follow come from US4598095A (priority 1982, dated 1986).

Values after ≈ are worked out from the molar mass of the structure shown. “Also recorded” adds a separate entry of the source. Counter-ions that a name gives are not always drawn. Bounds are passed on as bounds.

For data set [1], the system named is influenza virus, Adachi strain of A2-type. As to the kind of experiment: microbe, parasite or virus in culture. The settings on record: for virucidal index: 50% toxicity concentration / 50% virucidal concentration; for EC50: 2 h, read-out: 50% Virucidal Concentration. In kind it is cell-based.
The test system is the same in data set [2]. Put plainly: microbe, parasite or virus in culture. In kind it is cell-based. To be noted: for virus proliferation-inhibiting index: 50% toxicity concentration / 50% virus proliferation-inhibiting concentration, 2880 min; for IC50: 48 h, read-out: 50% Virus Proliferation-Inhibiting Concentration.
The subject of data set [3] is rice blast fungus (Pyricularia oryzae). Put plainly: whole plant or invertebrate. In kind it is in vivo. To be noted: 168 h, read-out: Protective Value.
Another data set can be described thus: in vitro. The settings on record: chicken, chorioallantoic membrane.
Data set [4] relates to rice blast fungus (Pyricularia oryzae). Format: in vivo. The settings on record: low dosage; for Protective Value: 100 ppm; for controlling effect against rice blast: Table 4.
A further data set deals with plant pathogenic fungi. To be noted: foregoing literature; cited from earlier work.
The subject of another data set is Pyricularia oryzae. To be noted: Bokin Bobai, Vol. 9, No. 12, pages 551 to 561 (1981); cited from earlier work.
Data set [5] is described as follows: acute toxicity (LD50) by intraperitoneal administration to mice. The settings on record: mouse, in vivo, ip. An excerpt:
In evaluating acute toxicity (LD50 value) of the compounds of this invention, compound number 4 and compound number 25 of Table 1, respectively, were selected and examined for their acute toxicities by intraperitoneal administration to mice.

With `CSC(=N)NN=C(C)c1cccc(Cl)c1` [Compound 24], in data set [1], the virucidal index is on record as 3.3 and the EC50 is 215 µg/mL (≈ 889 µM). Also, in data set [2], the virus proliferation-inhibiting index came to 28.3 and the IC50 is 25 µg/mL (≈ 103 µM). In addition, the pest or weed control at 400 ppm in data set [3] worked out at 89%. In “in vitro”, this compound registered a CC50 at 48 h of 708 µg/mL (≈ 2930 µM).

As to `CCCCSC(=N)NN=Cc1ccc(OCC)cc1` [Compound 19], in data set [1], the virucidal index stood at 3.2 and the EC50 worked out at 316 µg/mL (≈ 1130 µM). Also, in data set [2], the virus proliferation-inhibiting index is above 25.2 and the IC50 was determined as 39.7 µg/mL (≈ 142 µM). The pest or weed control at 400 ppm in data set [3] is 100%. For the same compound, in data set [4], the “Protective Value” was 93% and the “controlling effect against rice blast” value is reported as “very excellent controlling effects”. Also, the “effect against plant pathogenic fungi in vitro” value (“effect … in vitro” for short) with plant pathogenic fungi is listed as “never been observed to have effects of inhibiting proliferation of any of the pathogenic fungi”. The same compound displayed a CC50 at 48 h in the data set “in vitro” above 1000 µg/mL.

For `CSC(=N)NN=C(C)C=Cc1ccc(Cl)cc1` [Compound 42], in data set [1], the virucidal index is 4.2 and the EC50 worked out at 170 µg/mL (≈ 635 µM). In addition, in data set [2], the virus proliferation-inhibiting index is given as 7.1 and the IC50 stood at 100 µg/mL (≈ 373 µM). Moreover, the pest or weed control at 400 ppm in data set [3] was 88%. Moreover, the CC50 at 48 h in the data set “in vitro” is 710 µg/mL (≈ 2650 µM).

As for `CCCCSC(=N)NN=Cc1ccc(Cl)cc1Cl` [Compound 9, 2',4'-Dichlorobenzaldehyde-S-butylisothiosemicarbazone Hydrochloride], in data set [1], the virucidal index is 19.9 and the EC50 amounted to 31.6 µg/mL. In data set [2], the virus proliferation-inhibiting index turned out to be 5.5 and the IC50 was determined as 115 µg/mL. Moreover, in data set [3], the pest or weed control at 400 ppm worked out at 100%. In addition, the CC50 at 48 h in “in vitro” was determined as 632 µg/mL.

Regarding `CCCCCCCCCCOc1ccc(C(C)=NNC(=N)SC)cc1` [Compound 41], in data set [1], the virucidal index is on record as 6.9 and the EC50 is 145 µg/mL (≈ 399 µM). Moreover, in data set [2], the virus proliferation-inhibiting index is on record as below 5.0 and the IC50 was above 200 µg/mL. Further, in data set [3], the pest or weed control at 400 ppm came out at 94%. In addition, in the data set “in vitro”, the CC50 at 48 h amounted to 1000 µg/mL (≈ 2750 µM).

Regarding `CSC(=N)NN=Cc1ccc(Cl)cc1Cl` [Compound 8], in data set [1], the virucidal index was found to be 15.2 and the EC50 was determined as 46.4 µg/mL (≈ 177 µM). Moreover, in data set [2], the virus proliferation-inhibiting index is 35.7 and the IC50 came out at 19.8 µg/mL (≈ 75.5 µM). Besides, the pest or weed control at 400 ppm in data set [3] was determined as 97%. Further, the CC50 at 48 h in the data set “in vitro” was determined as 706 µg/mL (≈ 2690 µM).

On to `CCOc1ccc(C=NNC(=N)SC)cc1` [Compound 18], for which, in data set [3], the pest or weed control at 400 ppm was determined as 100%. Moreover, in data set [4], the “Protective Value” is listed as 99% and the “controlling effect against rice blast” value is on record as “very excellent controlling effects”. In the data set with plant pathogenic fungi, the “effect … in vitro” value is “never been observed to have effects of inhibiting proliferation of any of the pathogenic fungi”.

Turning to `CCCCCOc1ccc(C(C)=NNC(=N)SC)cc1` [Compound 38], in data set [2], the virus proliferation-inhibiting index is given as above 8.0 and the IC50 was 126 µg/mL (≈ 429 µM). Further, the pest or weed control at 400 ppm in data set [3] was found to be 100%. For the same compound, the “effect … in vitro” value in the data set on plant pathogenic fungi is “inactive against all of the plant pathogenic fungi”. In the data set “in vitro”, this compound returned a CC50 at 48 h above 1000 µg/mL.

In the case of `CSC(=N)NN=C(C)c1ccc(Cl)c(Cl)c1` [Compound 30], in data set [3], the pest or weed control at 400 ppm was 88%. Moreover, in data set [4], the “Protective Value” is reported as 66% and the “controlling effect against rice blast” value was “low protective values”. Also, the “MIC Value in Literature” value with Pyricularia oryzae was 12.5 µg/mL (≈ 45.3 µM).

Take `CCCCOc1ccc(C=NNC(=N)SC)cc1` [Compound 20]: the pest or weed control at 400 ppm in data set [3] came out at 99%. Further, in data set [4], the “Protective Value” was 100% and the “controlling effect against rice blast” value is on record as “very excellent controlling effects”. For the same compound, the “effect … in vitro” value with plant pathogenic fungi was “never been observed to have effects of inhibiting proliferation of any of the pathogenic fungi”.

As for `CSC(=N)NN=Cc1cc(Cl)cc(Cl)c1` [Compound 13], in data set [2], the virus proliferation-inhibiting index turned out to be 14.0 and the IC50 stood at 50 µg/mL (≈ 191 µM). In addition, the pest or weed control at 400 ppm in data set [3] was determined as 100%. In “in vitro”, this compound gave a CC50 at 48 h of 700 µg/mL (≈ 2670 µM).

For `CN=C(NN=Cc1ccc(Cl)c(Cl)c1)SC` [Compound 10], the pest or weed control at 400 ppm in data set [3] was 88%. In addition, in data set [4], the “Protective Value” is recorded as 67% and the “controlling effect against rice blast” value is recorded as “low protective values”. Moreover, in the data set with Pyricularia oryzae, the “MIC Value in Literature” value is 12.5 µg/mL (≈ 45.3 µM).

In the case of `CSC(=N)NN=C(C)c1ccc(Cl)cc1` [Compound 25], in data set [1], the virucidal index is 1.7 and the EC50 amounted to 215 µg/mL (≈ 889 µM). Besides, in data set [2], the virus proliferation-inhibiting index came out at 24.6 and the IC50 turned out to be 14.4 µg/mL (≈ 59.6 µM). The LD50 (in general, the dose at which mortality reaches 50%) in data set [5] is 150 mg/kg. Besides, in data set [3], the pest or weed control at 400 ppm was determined as 100%. The compound also gave a CC50 at 48 h in the data set “in vitro” of 354 µg/mL (≈ 1470 µM).

As to `CCCCCCCCCCCCOc1ccc(C=CC(C)=NNC(=N)SC)cc1` [Compound 46], in data set [1], the virucidal index is reported as above 31.6 and the EC50 worked out at 31.6 µg/mL (≈ 75.7 µM). In addition, in data set [2], the virus proliferation-inhibiting index is recorded as above 11.7 and the IC50 amounted to 85.2 µg/mL (≈ 204 µM). The pest or weed control at 400 ppm in data set [3] worked out at 77%. In “in vitro”, this compound showed a CC50 at 48 h above 1000 µg/mL.

Regarding `CSC(=N)NN=C(C)c1ccc(Cl)cc1Cl` [Compound 29], in data set [1], the virucidal index is reported as 1.8 and the EC50 came to 100 µg/mL (≈ 362 µM). Besides, in data set [2], the virus proliferation-inhibiting index worked out at 7.7 and the IC50 was determined as 23.2 µg/mL (≈ 84 µM). Moreover, in data set [3], the pest or weed control at 400 ppm was 90%. Besides, the CC50 at 48 h in the data set “in vitro” was found to be 180 µg/mL (≈ 652 µM).

As for `NC12CC3CC(CC(C3)C1)C2` [Am, Adamantaneamine Hydrochloride, reference compound], in data set [1], the virucidal index was 1.5 and the EC50 is 649 µg/mL. For the same compound, in data set [2], the virus proliferation-inhibiting index stood at 30.4 and the IC50 turned out to be 32.9 µg/mL. The compound further gave a CC50 at 48 h in “in vitro” of 1000 µg/mL.

For the compound `CSC(=N)NN=Cc1ccc(Cl)c(Cl)c1` [Compound 11, 3',4'-Dichlorobenzaldehyde-S-methylisothiosemicarbazone Hydrochloride], in data set [1], the virucidal index was found to be 15.2 and the EC50 is 46.4 µg/mL. In data set [2], the virus proliferation-inhibiting index was 33.2 and the IC50 was 21.3 µg/mL. Moreover, the pest or weed control at 400 ppm in data set [3] stood at 98%. This compound also showed a CC50 at 48 h in the data set “in vitro” of 707 µg/mL.

Regarding `CSC(=N)NN=C(C)c1ccc(Cl)c(Cl)c1Cl` [Compound 31], in data set [2], the virus proliferation-inhibiting index is reported as 16.6 and the IC50 is 21.3 µg/mL (≈ 68.6 µM). For the same compound, the pest or weed control at 400 ppm in data set [3] stood at 89%. In addition, the CC50 at 48 h in “in vitro” came to 354 µg/mL (≈ 1140 µM).

`CCOc1ccc(C=CC(C)=NNC(=N)SC)cc1` [Compound 43]: in data set [1], the virucidal index is 3.2 and the EC50 was 316 µg/mL (≈ 1140 µM). Moreover, in data set [2], the virus proliferation-inhibiting index worked out at 7.1 and the IC50 was 141 µg/mL (≈ 508 µM). For the same compound, the pest or weed control at 400 ppm in data set [3] was 100%. In data set [4], the “Protective Value” came to 97% and the “controlling effect against rice blast” value is given as “very excellent controlling effects”. Also, the “effect … in vitro” value in the data set with plant pathogenic fungi was “never been observed to have effects of inhibiting proliferation of any of the pathogenic fungi; also recorded: inactive against all of the plant pathogenic fungi”. Moreover, the CC50 at 48 h in “in vitro” was above 1000 µg/mL.

For the compound `CSC(=N)NN=C(C)c1ccc(C)cc1` [Compound 33], in data set [2], the virus proliferation-inhibiting index was 20.0 and the IC50 amounted to 50 µg/mL (≈ 226 µM). For the same compound, the pest or weed control at 400 ppm in data set [3] was found to be 97%. The compound also yielded a CC50 at 48 h in the data set “in vitro” of 1000 µg/mL (≈ 4520 µM).

Regarding `CSC(=N)NN=Cc1cccc(Cl)c1` [Compound 4], in data set [1], the virucidal index is recorded as 5.7 and the EC50 was determined as 175 µg/mL (≈ 768 µM). For the same compound, in data set [2], the virus proliferation-inhibiting index is above 54.0 and the IC50 was 18.5 µg/mL (≈ 81.2 µM). This compound also displayed a 50% lethal dose (LD50) in data set [5] of 200 mg/kg. Further, in data set [3], the pest or weed control at 400 ppm is 100%. This compound displayed a CC50 at 48 h in “in vitro” above 1000 µg/mL.
